What was measured:
[1] = tested on: hippocampal CA1 pyramidal neurones; assay: Whole cell recording of EPSC amplitude in hippocampal slices; type: cell-based, male Sprague-Dawley rats
Protocol: The stimulatory activity of the compounds of the invention on the central nervous system was evaluated in-vitro by recording the excitatory postsynaptic current (EPSC) amplitude in stimulated hippocampal CA1 pyramidal neurones from slices of male Sprague-Dawley rats, as described in more detail hereinafter in the Experimental and Preparations section.
Male Sprague-Dawley rats, 15 to 20 days old at the time of surgery, were used in this study. On the day of the experiment, animals were terminally anaesthetized using isofluorane, cervically dislocated, and decapitated. The brain was removed and 400 μm thick parasagittal brain slices prepared using a Leica VT1000S. Slices were maintained in an artificial cerebrospinal fluid (ACSF) of the following composition (in mM, aqueous solution): 127 NaCl; 1.9 KCl; 1.2 KH2PO4; 2.4 CaCl2; 1.3 MgCl2; 26 NaHCO3; and, 10 D-glucose, bubbled with a mixture of 95% O2/5% CO2, at room temperature for 1 hour after slicing before commencing electrophysiological recordings. […]

[2] = Metabolic stability in cryopreserved beagle dog hepatocytes; type: in vitro ADME; details: beagle, dog, cryopreserved hepatocytes, test compound 1 μM, 3 million cells per ml, 90 min incubation
Protocol: (§1) The metabolic stability of the compounds of the invention was evaluated in-vitro using cryopreserved beagle dog hepatocytes, as described in more detail hereinafter in the Experimental and Preparations section.
(§2) The test compound (1 μM) was incubated with cryopreserved beagle dog hepatocytes at 3 million cells per ml, in 300 μL of Leibovitz's medium for a total period of 90 min. During this period, 25 μL aliquots were taken at 1, 10, 30, 50, 70 & 90 minutes and quenched in acetonitrile. Quenched samples were centrifuged to pellet the precipitated protein, and supernatant removed for LC-MS-MS (high performance liquid chromatography coupled to a tandem mass spectrometer) analysis to quantify the amount of the parent test compound remaining. The first order elimination rate constant (k) was determined from a plot of natural log of parent test compound remaining versus time, and used to calculate a metabolic stability half-life (T1/2), where T1/2=Ln2/k where k=elimination rate constant.

[3] = tested on: cryopreserved beagle dog hepatocytes; assay: as above; type: in vitro ADME; details: Example 2 versus tianeptine
Protocol: as §1, §2

[4] = PPB (compound bound to proteins); details: plasma

CN1c2ccccc2C(NCCCCOCC(=O)O)c2ccc(Cl)cc2S1(=O)=O (stereo not drawn) [Example 2, 2-(4-((3-chloro-6-methyl-5,5-dioxido-6,11-dihydrodibenzo[c,f][1,2]thiazepin-11-yl)amino)butoxy)acetic acid]
increase of control EPSC amplitude ([1]; 10 μM bath applied, percentage of the control, mean±S.E.M (n=6)): 224.67±34.27%
effect on excitatory transmission in CA1 region of hippocampus (FIG. 1) ([1]; representative electrophysiological recording, 10 μM): facilitates excitatory transmission
half-life at 1 μM ([2]; T1/2=Ln2/k): 2060 min
hepatocyte CLint at 1 μM ([2]; read-out: Clint (intrinsic clearance)): 0.3 µL/min/1e6 cells
metabolic stability half life compared with tianeptine [3]: more than 10 times
fraction unbound [4]: 0.18

— US9487492B2, “Dibenzothiazepine derivatives and their use in the treatment of CNS disorders” (NUMEDICUS LIMITED, priority 2011, dated 2016)
